Experiments:
[1] = test system: E. coli BT3/pACYCSP+pRASSL4 strain; assay: Growth of E. coli BT3/pACYCSP+pRASSL4 with herbicidal compound; type: cell-based, Escherichia coli; conditions: 1 ppm, 18 hours culture, Table 16
Excerpt: According to the description of Gibson, L. C. D. et al., Proc. Natl. Acad. Sci. USA, 92; p 1941 (1995), the DNA fragment containing bchH gene prepared in Example 1 was digested with the restriction enzymes NdeI and BglII. The resultant DNA fragment was inserted between NdeI restriction site and BamHI restriction site of expression vector pET11a (manufactured by Stratagene) to obtain plasmid pETBCH (FIG. 1). This plasmid pETBCH was introduced into E. coli BL21(DE3) strain competent cells (manufactured by Stratagene) according to the manual attached to the competent cells to obtain E. coli BL21(DE3)/pETBCH strain. […] When the absorbance at 600 nm of the liquid culture medium became about 0.6, isopropyl β-D-thiogalactopyranoside (IPTG) was added to the liquid culture medium so that the final concentration was 0.4 mM, and the culture was continued for about additional 20 hours. […]
These E. coli strains were inoculated into YPT medium containing 1 ppm of the PPO inhibitory-type herbicidal compound represented by Structure 8, 100 μg/ml ampicillin, 15 μg/ml chloramphenicol, 10 μg/ml kanamycin, 10 μg/ml hemin and 50 μg/ml aminolevulinic acid, cultured under dark conditions or light conditions according to the same manner as in Example 2. Then, 18 hours after initiation of culture, the absorbance of the liquid culture medium was measured at 600 nm. […]

[2] = test system: tobacco introduced with the gene encoding the variant soybean PPO; assay: Leaf piece chlorophyll test, tobacco with gene encoding variant soybean PPO; type: in vivo; conditions: Table 8; for Resistant level to test compound: same manner as Example 6 (0.3 ppm), treated vs untreated leaf pieces; for Total chlorophyll content treated-leaf: same manner as Example 6 (0.3 ppm, 7 days in light)
Excerpt: The tobacco leaves into which bchH gene was introduced and control recombinant tobacco leaves obtained in Example 5 were collected and each leaf was divided into the right and left equivalent pieces along the main vein, respectively. To one piece was applied an aqueous solution containing 0.3 ppm PPO inhibitory-type herbicidal compound of Structure 8, while, to the other piece was not applied the compound. These leaf pieces were placed on MS medium containing 0.8% agar and allowed to stand at room temperature for 7 days in light place. Then, each leaf piece was ground with pestle and mortar in 5 ml of 80% aqueous acetone solution to extract chlorophyll. The extract liquid was diluted with 80% aqueous acetone solution and the absorbance was measured at 750 nm, 663 nm and 645 nm to calculate total chlorophyll content according to the method described by Macknney G., J. Biol. Chem. (1941) 140, p 315. The results obtained from 4 clones of tobacco into which bchH gene was introduced (BCH1 to 4) and control recombinant tobacco is shown in Table 4. In the table, the resistant level to the herbicidal compound was represented by percentages of the total chlorophyll content of leaf pieces treated with herbicidal compound to that of untreated leaf pieces.
Leaf pieces of tobacco cultured sterilely were infected with the Agrobacterium strain and, according to the same manner as in Example 5, tobacco into which the gene encoding the variant soybean PPO was introduced was obtained.
The level of resistance to PPO inhibitory type herbicidal compound represented by Structure 8 was confirmed quantitatively by testing tobacco into which the gene encoding the variant soybean PPO prepared in Example 13 was introduced according to the same manner as in Example 6. The results obtained from 4 clones (GMP 1-4) of tobacco introduced with the gene encoding the variant soybean PPO and control recombinant tobacco are shown in Table 8. In the table, the resistant level to herbicidal compound is represented by percentage of the total chlorophyll content of leaf pieces treated with the herbicidal compound to that of untreated leaf pieces.

SMILES: C#CCOc1cc(N2C(=O)C3=C(CCCC3)C2=O)c(F)cc1Cl [Structure 8]
- Relative absorbance ([1]; in the dark): 0.98
- Relative absorbance ([1]; in the light): 1.1
- Resistant level to test compound ([2]; clone GMP-1): 135%
- Total chlorophyll content treated-leaf ([2]; clone GMP-1): 2.55 mg/g-fresh weight
- Resistant level to test compound ([2]; clone GMP-2): 108%
- Total chlorophyll content treated-leaf ([2]; clone GMP-2): 0.96 mg/g-fresh weight
- Resistant level to test compound ([2]; clone GMP-3): 99.3%
- Total chlorophyll content treated-leaf ([2]; clone GMP-3): 1.49 mg/g-fresh weight
- Resistant level to test compound ([2]; clone GMP-4): 80.4%
- Total chlorophyll content treated-leaf ([2]; clone GMP-4): 2.34 mg/g-fresh weight

From patent US7973219B2, “Method for producing transgenic plants resistant to weed control compounds which disrupt the porphyrin pathways of plants” (Sumitomo Chemical Company, Limited, priority 1998, dated 2011)
